# Key:
# [1] = Tolerability and gross liver phenotype of ERL mice after inducer dosing; assay type: in vivo, mouse
# Method: (§1) Single doses of βNF (80 mg/kg body weight as a suspension in corn oil) were administered intraperitoneally (i.p.). Doses of 3MC between 0.5 and 40 mg/kg body weight (single injections) were administered i.p. in corn oil; in some experiments, three daily doses were administered, as detailed in the Figure legends. Mice were killed at the same time of day by a rising concentration of CO2 9 or 14 days after dosing and the following tissues removed and snap-frozen in liquid nitrogen: liver, lung, kidney, small intestine, large intestine, spleen and skin. Samples were then stored at − 80°C until processing for sub-cellular fractions.
# The effects of a single dose of the polycyclic aromatic hydrocarbon AhR ligand βNF (80 mg/kg i.p.) on ERL mice were investigated in initial range-finding experiments (Figure 2A). Liver and small intestine tissues were harvested 9 or 14 days after dosing. […] On post mortem examination, βNF treated ERL mice had pale, mottled, enlarged livers which weighed approximately 60% more than those of either corn oil treated ERL mice or βNF treated WT animals. This phenotype is characteristic of POR deletion and is also observed in HRN and RCN animals. The effect on POR expression in the ERL liver and small intestine of a single dose of βNF (80 mg/kg i.p.) was similar to that observed in RCN mice following four daily doses (compare Figure 2A with Figure 1 of Finn et al.).
# Both ERL and WT animals lost weight in response to this treatment.
# POR [2] = experiment: POR expression by Western blot/densitometry in tissues of ERL mice after Cyp1a1 inducer; assay type: in vivo, mouse
# Method: as §1
# Microsomal fractions were prepared as described previously and stored at − 70°C until required. Microsomal protein concentrations were determined using the Bio-Rad Protein Assay Reagent (Bio-Rad Laboratories) and Western blot analysis was preformed as described previously using polyclonal antisera to rat P450s and POR [27, 28]. Immunoreactive proteins were detected using horseradish peroxidase (HRP)-conjugated polyclonal goat anti-rabbit, anti-mouse or anti-sheep immunoglobulin secondary antibodies, as appropriate (Dako). Bands were visualized using Immobilon™ chemiluminescent HRP-conjugated substrate (Millipore) and a FUJIFILM LAS-3000 mini imaging system (Fujifilm UK.). Densitometric analysis was performed using Multi Gauge V2.2 software (Fujifilm UK).
# POR [3] = experiment: POR activity in microsomes of treated ERL mice, cytochrome c reduction; assay type: in vivo, mouse
# Method: (§2) The low levels of cytochrome c reduction detected in the small intestine were further decreased (by 78%) in ERL animals treated with 40 mg/kg 3MC (36.2 ± 15.6 compared with 8.2 ± 3.3 nmol cytochrome c reduced/min/mg respectively, n = 3, mean + S.D., P < 0.01). No P450 activity was detected in small intestinal microsomes from either WT or ERL animals.
# P450 = experiment: P450-mediated substrate turnover in liver of treated ERL mice; assay type: in vivo, mouse; details: 3MC 40 mg/kg, n=6
# Method: as §2
# [4] = In vivo pharmacokinetics of probe drugs in WT and ERL (POR-deleted) mice, blood LC-MS/MS; details: for Cl / Cmax: mean ± S.D., n=3; for Cmax: po
# Method: WT and ERL mice (n = 3) were pre-treated with corn oil or 3MC (4 or 40 mg/kg). A single dose of midazolam (5 mg/kg p.o.), or nelfinavir (50 mg/kg p.o.) or paroxetine (10 mg/kg p.o.) was administered on day 14 after 3MC treatment. Whole blood (10 μl) was taken from the tail vein at timed intervals after drug administration and transferred into a tube containing heparin (10 μl, 15 IU/ml).
# For midazolam analysis, internal standard solution (10 μl; 500 ng of caffeine and 500 ng of resorpine) was added and proteins were precipitated using methanol (75 μl), followed by 8% sulfosalicylic acid (55 μl). Samples were mixed for 1 min and centrifuged at 13 000 g for 5 min. The supernatant was analysed for midazolam and the two internal standards by LC–MS/MS, as described previously. Standard curves were constructed by spiking blank blood samples with known amounts of midazolam. Extraction and protein precipitation were carried out as outlined above for the test samples.
# For nelfinavir and paroxetine analysis, mouse blood extraction was performed by a method based on protein precipitation using acetonitrile containing sulfadimethoxine (100 ng/ml) as internal standard. Samples were vortex mixed for 1 min followed by centrifugation at 2800 g for 10 min. Supernatants were analysed by UPLC–MS/MS using a Xevo TQs mass spectrometer (Waters). Nelfinavir, paroxetine and sulfadimethoxine were separated on an Acquity UPLC BEH C18 column (1.7 μm particle size, 50 × 2.1 mm i.d.) by gradient elution with acetonitrile and water at a flow rate 0.6 ml/min. The cycle time of each analysis was 3 min. Matrix effects were assessed by dilution. Quantification of the analytes was performed in electrospray positive ionization mode using multiple reaction monitoring.
# Pharmacokinetic parameters were calculated using WinNonLin software, version 3.1. A simple non-compartmental model was used to calculate the area under the curve (AUC), terminal half-life, Cmax and clearance. Statistical analysis of pharmacokinetic data was carried out using Student’s t tests.
# [5] = system: PhIP-DNA adducts in the colon; design: method as in PMID 21940903; details: RCN mice dosed orally with PhIP 2 weeks after 3MC, compared with PhIP alone; cited from earlier work
# [6] = liver and gut POR deletion compared with WT/control
# [7] = liver only POR deletion relative to control
smiles,measurement,setting,value
"Cc1ccc2cc3c(ccc4ccccc43)c3c2c1CC3 [3MC, 3-methylcholanthrene]",increase in liver weight,"[1]; single dose 3MC 40 mg/kg i.p., post mortem",60–90%
same,residual hepatic POR expression (densitometric quantification),"POR [2]; ERL mice, 3MC 40 mg/kg i.p., results not shown",< 4%
same,single dose required for knockdown in both liver and small intestine,"POR [2]; ERL mice, i.p.",20 to 40 mg/kg
same,single dose for knockdown of hepatic POR expression,"POR [2]; ERL mice, i.p., liver only",4 mg/kg
same,POR knockdown in large intestine,"POR [2]; ERL mice, three daily doses of 3MC 40 mg/kg/day i.p., harvested 14 days after initial dose",50%
same,"dose needed to knockdown POR in liver of ERL mice, lower than in RCN animals",POR [2]; ERL vs RCN animals (ref 20),10 fold
same,decrease of cytochrome c reduction in small intestine,POR [3]; ERL animals treated with 40 mg/kg 3MC,78%
same,hepatic POR activity as % of WT,POR [3]; livers from ERL mice 14 days after 3MC 40 mg/kg,approximately 4%
same,hepatic POR activity (cytochrome c reduction),"POR [3]; livers from ERL mice 14 days after 3MC 40 mg/kg, n=3, mean ± S.D., WT 60.3 ± 20.8",2.2 ± 1.9 nmol cytochrome c reduced/min/mg
same,cytochrome c reduction in small intestine,"POR [3]; small intestine of ERL animals treated with 40 mg/kg 3MC, n=3, mean ± S.D., comparator 36.2 ± 15.6",8.2 ± 3.3 nmol cytochrome c reduced/min/mg
same,reduction in P450-mediated turnover of 7-benzyloxy-4-(trifluoromethyl)-coumarin,P450,95%
same,reduction in P450-mediated turnover of methoxyresorufin,P450,70%
"Cc1ncc2n1-c1ccc(Cl)cc1C(c1ccccc1F)=NC2 [Midazolam, midazolam]",Cl,"[4]; Control (WT + corn oil), single p.o. dose nelfinavir 50 mg/kg, paroxetine 10 mg/kg or midazolam 5 mg/kg",113 ± 35 mL/min/kg
same,Cmax,"[4]; ERL (Por^lox/lox/Cre^Cyp1a1-KI), mouse, in vivo, Liver and gut null (ERL + 3MC 40 mg/kg, day 14), single p.o. dose nelfinavir 50, paroxetine 10 or midazolam 5 mg/kg",4460 ± 1530 ng/mL
same,Cmax,"[4]; ERL (Por^lox/lox/Cre^Cyp1a1-KI), mouse, in vivo, Liver null (ERL + 3MC 4 mg/kg, day 14), single p.o. dose nelfinavir 50, paroxetine 10 or midazolam 5 mg/kg",1850 ± 340 ng/mL
same,Cl,"[4]; Liver and gut null (ERL + 3MC 40 mg/kg, day 14), single p.o. dose nelfinavir 50, paroxetine 10 or midazolam 5 mg/kg",4.3 ± 0.9^••◦ ml/min/kg
same,Cl,"[4]; Liver null (ERL + 3MC 4 mg/kg, day 14), single p.o. dose nelfinavir 50, paroxetine 10 or midazolam 5 mg/kg",13 ± 5 mL/min/kg
same,Cmax,"[4]; WT (Por^lox/lox), mouse, in vivo, Control (WT + corn oil), single p.o. dose nelfinavir 50 mg/kg, paroxetine 10 mg/kg or midazolam 5 mg/kg",610 ± 110 ng/mL
same,increase in AUC,[4]; [6],22.9 fold
same,increase in Cmax,[4]; [6],7.3 fold
same,increase in half-life,[4]; [6],1.6 fold
same,decrease in clearance,[4]; liver and gut POR deletion relative to control,26.3 fold
same,decrease in clearance,[4]; [7],9 fold
same,increase in AUC,[4]; [7],9 fold
same,increase in Cmax,[4]; [7],3 fold
"Fc1ccc([C@@H]2CCNC[C@H]2COc2ccc3c(c2)OCO3)cc1 [Paroxetine, paroxetine]",increase in half-life,"[4]; ERL (Por^lox/lox/Cre^Cyp1a1-KI), control: WT (Por^lox/lox), mouse, in vivo",3.5 fold
same,change in Cmax,"[4]; mouse, in vivo",essentially unchanged
same,decrease in clearance,"[4]; mouse, in vivo",~ 3 fold
same,increase in AUC,"[4]; mouse, in vivo",1.5 fold
"Cn1c(N)nc2ncc(-c3ccccc3)cc21 [PhIP, 2-amino-1-methyl-6-phenylimidazo[4,5-b]pyridine]",reduction of adduct formation in the colon,[5],50%
"O=c1cc(-c2ccccc2)oc2ccc3ccccc3c12 [βNF, β-naphthoflavone]",body weight loss over the course of the treatment,[1]; single dose βNF 80 mg/kg i.p.,2 to 4 g
same,increase in liver weight vs corn oil treated ERL or βNF treated WT,"[1]; single dose βNF 80 mg/kg i.p., 9 or 14 days",approximately 60%
